What was measured:
cells = settings: Homo sapiens, Osimertinib-resistant HCC827AR cell, 72 h
[1] = biological target: CDK6/cyclin D3 (Homo sapiens) (UniProt P30281+Q00534); test: Inhibition of CDK6/cyclin D3 (unknown origin) at 200 nM preincubated for 10 mins followed by substrate addition and measured after 60 mins in presence of ATP by ADP-Glo reagent based assay relative to control; assay type: protein-complex assay; settings: time 70.0 min
[2] = Toxicity in ICR mouse assessed as morphological changes in heart at 1000 mg/kg, po measured after 9 days by H and E staining based analysis; assay type: organism-based; settings: in vivo, 216 h, time 9 day
[3] = Toxicity in ICR mouse assessed as morphological changes in liver at 1000 mg/kg, po measured after 9 days by H and E staining based analysis; assay type: organism-based; settings: in vivo, 216 h, time 9 day
[4] = Antitumor activity against patient derived #0243 lung cancer organoid assessed as inhibition of growth measured after 4 days; assay type: functional, tissue-based; settings: Homo sapiens, 96 h
[5] = Toxicity in ICR mouse assessed as morphological changes in kidney at 1000 mg/kg, po measured after 9 days by H and E staining based analysis; assay type: organism-based; settings: in vivo, 216 h, time 9 day
[6] = biological target: Glycogen synthase kinase-3 beta (Homo sapiens) (UniProt P49841); test: Inhibition of GSK3beta (unknown origin) at 500 nM preincubated for 10 mins followed by substrate addition and measured after 60 mins in presence of ATP by ADP-Glo reagent based assay relative to control; settings: time 70.0 min
Glycogen synthase kinase-3 beta (Homo sapiens), sequence (P49841 whole entry, looked up): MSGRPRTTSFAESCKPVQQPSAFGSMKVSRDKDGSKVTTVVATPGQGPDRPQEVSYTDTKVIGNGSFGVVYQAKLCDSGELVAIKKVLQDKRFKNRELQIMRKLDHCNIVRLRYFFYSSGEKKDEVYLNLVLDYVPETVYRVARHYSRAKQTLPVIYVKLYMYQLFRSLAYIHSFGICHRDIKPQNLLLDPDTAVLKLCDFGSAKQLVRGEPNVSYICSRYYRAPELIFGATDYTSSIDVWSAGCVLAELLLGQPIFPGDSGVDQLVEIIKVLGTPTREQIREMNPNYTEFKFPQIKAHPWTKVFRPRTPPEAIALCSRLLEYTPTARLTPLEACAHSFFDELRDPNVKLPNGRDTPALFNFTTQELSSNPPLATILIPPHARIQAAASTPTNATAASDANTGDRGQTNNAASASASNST

[7] = biological target: CDK1/Cyclin A (Homo sapiens) (UniProt P06493+P20248); test: Inhibition of CDK1/Cyclin A2 (unknown origin) at 200 nM preincubated for 10 mins followed by substrate addition and measured after 60 mins in presence of ATP by ADP-Glo reagent based assay relative to control; assay type: protein-complex assay; settings: time 70.0 min
CDK1/Cyclin A (Homo sapiens), sequence (P06493 whole entry, looked up): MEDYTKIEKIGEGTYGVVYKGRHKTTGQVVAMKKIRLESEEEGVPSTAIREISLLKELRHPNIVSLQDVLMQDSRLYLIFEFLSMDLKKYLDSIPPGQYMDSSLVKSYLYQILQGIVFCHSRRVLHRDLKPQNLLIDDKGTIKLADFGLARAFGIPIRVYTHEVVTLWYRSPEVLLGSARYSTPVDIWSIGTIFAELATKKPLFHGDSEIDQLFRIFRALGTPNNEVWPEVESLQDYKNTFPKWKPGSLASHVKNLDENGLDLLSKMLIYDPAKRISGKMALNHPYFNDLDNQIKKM
CDK1/Cyclin A (Homo sapiens), sequence (P20248 whole entry, looked up): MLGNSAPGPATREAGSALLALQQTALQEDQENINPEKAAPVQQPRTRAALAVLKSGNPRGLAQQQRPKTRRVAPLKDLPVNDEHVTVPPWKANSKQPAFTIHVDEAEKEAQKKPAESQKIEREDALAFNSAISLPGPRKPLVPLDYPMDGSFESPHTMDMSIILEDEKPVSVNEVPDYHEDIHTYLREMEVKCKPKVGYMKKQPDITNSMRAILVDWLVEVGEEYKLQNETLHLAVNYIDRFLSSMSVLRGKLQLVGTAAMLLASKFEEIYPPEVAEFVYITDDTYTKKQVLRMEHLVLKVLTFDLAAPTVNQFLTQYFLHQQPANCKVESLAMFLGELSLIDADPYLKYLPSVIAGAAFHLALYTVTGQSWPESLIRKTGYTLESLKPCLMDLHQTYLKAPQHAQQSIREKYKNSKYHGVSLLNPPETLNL

[8] = Induction of apoptosis in human Osimertinib-resistant NCI-H1975 cell assessed as late apoptotic cells at 125 nM measured after 16 hrs in presence of osimertinib by Annexin V-FITC and PI staining based analysis (Rvb =2.84%); assay type: functional
[9] = Metabolic stability in human liver microsomes assessed as half life at 10 uM measured at 5 to 60 mins by LC-MS/MS analysis; assay type: ADME, Microsome; settings: time 5-60 min
[10] = biological target: Cyclin-dependent kinase 5/CDK5 activator 1 (Homo sapiens) (UniProt Q00535+Q15078); test: Inhibition of CDK5/p35NCK (unknown origin) at 200 nM preincubated for 10 mins followed by substrate addition and measured after 60 mins in presence of ATP by ADP-Glo reagent based assay relative to control; assay type: protein-complex assay; settings: time 70.0 min
Cyclin-dependent kinase 5/CDK5 activator 1 (Homo sapiens), sequence (Q00535 whole entry): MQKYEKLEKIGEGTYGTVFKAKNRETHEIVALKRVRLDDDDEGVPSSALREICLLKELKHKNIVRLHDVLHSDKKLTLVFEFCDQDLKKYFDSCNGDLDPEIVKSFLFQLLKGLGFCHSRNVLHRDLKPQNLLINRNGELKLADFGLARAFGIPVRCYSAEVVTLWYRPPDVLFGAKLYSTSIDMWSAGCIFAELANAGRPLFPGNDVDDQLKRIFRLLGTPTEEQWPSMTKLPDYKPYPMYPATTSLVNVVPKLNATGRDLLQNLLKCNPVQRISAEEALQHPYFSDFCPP
Cyclin-dependent kinase 5/CDK5 activator 1 (Homo sapiens), sequence (Q15078 99-307 partner limits assumed): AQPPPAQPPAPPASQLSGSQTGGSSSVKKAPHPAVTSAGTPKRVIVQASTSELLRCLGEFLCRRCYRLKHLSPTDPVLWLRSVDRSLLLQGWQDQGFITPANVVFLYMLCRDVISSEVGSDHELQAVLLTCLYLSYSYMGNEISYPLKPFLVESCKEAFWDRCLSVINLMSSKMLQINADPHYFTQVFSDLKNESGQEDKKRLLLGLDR

NCI-H1975 [11] = test: Downregulation of Bcl-2 level in human Osimertinib-resistant NCI-H1975 cell measured after 16 hrs by Western blot analysis; assay type: functional, cell-based; settings: dose 125-2000 nM
[12] = Induction of apoptosis in human Osimertinib-resistant NCI-H1975 cell assessed as necrotic cells at 500 nM measured after 16 hrs by Annexin V-FITC and PI staining based analysis (reference value: 0.50%); assay type: functional
[13] = biological target: CDK7/Cyclin H/MNAT1 (Homo sapiens) (UniProt P51946+P50613+P51948); test: Inhibition of CDK7/Cyclin H/MAT1 (unknown origin) at 200 nM preincubated for 10 mins followed by substrate addition and measured after 60 mins in presence of ATP by ADP-Glo reagent based assay relative to control; assay type: protein-complex assay; settings: time 70.0 min
[14] = biological target: CDK4/Cyclin D3 (Homo sapiens) (UniProt P11802+P30281); test: Inhibition of CDK4/Cyclin D3 (unknown origin) at 200 nM preincubated for 10 mins followed by substrate addition and measured after 60 mins in presence of ATP by ADP-Glo reagent based assay relative to control; assay type: protein-complex assay; settings: time 70.0 min
[15] = biological target: Dual specificity protein kinase CLK3 (Homo sapiens) (UniProt P49761); test: Inhibition of CLK3 (unknown origin) at 100 nM preincubated for 10 mins followed by substrate addition and measured after 60 mins in presence of ATP by ADP-Glo reagent based assay relative to control; settings: time 70.0 min
Dual specificity protein kinase CLK3 (Homo sapiens), sequence (P49761 whole entry, looked up): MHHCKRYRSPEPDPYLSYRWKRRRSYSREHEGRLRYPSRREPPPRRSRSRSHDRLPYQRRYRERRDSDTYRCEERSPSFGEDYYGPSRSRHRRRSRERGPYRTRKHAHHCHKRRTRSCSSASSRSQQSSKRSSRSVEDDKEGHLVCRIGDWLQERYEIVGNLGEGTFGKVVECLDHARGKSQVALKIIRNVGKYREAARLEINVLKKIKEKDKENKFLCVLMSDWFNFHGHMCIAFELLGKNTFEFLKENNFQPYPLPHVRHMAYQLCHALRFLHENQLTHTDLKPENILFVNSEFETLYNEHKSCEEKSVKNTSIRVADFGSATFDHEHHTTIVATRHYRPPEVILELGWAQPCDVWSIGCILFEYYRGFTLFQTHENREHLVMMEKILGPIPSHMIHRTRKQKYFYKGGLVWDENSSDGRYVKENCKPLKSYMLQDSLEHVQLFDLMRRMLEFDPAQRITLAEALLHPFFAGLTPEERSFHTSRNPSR

[16] = Induction of apoptosis in human Osimertinib-resistant NCI-H1975 cell assessed as early apoptotic cells at 2000 nM measured after 16 hrs by Annexin V-FITC and PI staining based analysis (reference value: 1.78%); assay type: functional
NCI-H1975 [17] = test: Induction of apoptosis in human Osimertinib-resistant NCI-H1975 cell assessed as increase in percentage of apoptotic cells measured after 16 hrs by Annexin V-FITC and PI staining based analysis; assay type: functional; settings: dose 125-2000 nM
[18] = Induction of apoptosis in human Osimertinib-resistant NCI-H1975 cell assessed as early apoptotic cells at 500 nM measured after 16 hrs by Annexin V-FITC and PI staining based analysis (reference value: 1.78%); assay type: functional
NCI-H1975 [19] = test: Downregulation of Mcl-1 level in human Osimertinib-resistant NCI-H1975 cell measured after 8 hrs by Western blotting analysis; assay type: functional, cell-based; settings: dose 0.05-2 µM
HCC827 = test: Antiproliferative activity against human HCC827 cells incubated for 72 hrs by MTT assay; assay type: functional, cell-based; settings: HCC827, 72 h
[20] = biological target: Dual specificity protein kinase CLK1 (Homo sapiens) (UniProt P49759); test: Inhibition of CLK1 (unknown origin) at 500 nM preincubated for 10 mins followed by substrate addition and measured after 60 mins in presence of ATP by ADP-Glo reagent based assay relative to control; settings: time 70.0 min
Dual specificity protein kinase CLK1 (Homo sapiens), sequence (P49759 whole entry, looked up): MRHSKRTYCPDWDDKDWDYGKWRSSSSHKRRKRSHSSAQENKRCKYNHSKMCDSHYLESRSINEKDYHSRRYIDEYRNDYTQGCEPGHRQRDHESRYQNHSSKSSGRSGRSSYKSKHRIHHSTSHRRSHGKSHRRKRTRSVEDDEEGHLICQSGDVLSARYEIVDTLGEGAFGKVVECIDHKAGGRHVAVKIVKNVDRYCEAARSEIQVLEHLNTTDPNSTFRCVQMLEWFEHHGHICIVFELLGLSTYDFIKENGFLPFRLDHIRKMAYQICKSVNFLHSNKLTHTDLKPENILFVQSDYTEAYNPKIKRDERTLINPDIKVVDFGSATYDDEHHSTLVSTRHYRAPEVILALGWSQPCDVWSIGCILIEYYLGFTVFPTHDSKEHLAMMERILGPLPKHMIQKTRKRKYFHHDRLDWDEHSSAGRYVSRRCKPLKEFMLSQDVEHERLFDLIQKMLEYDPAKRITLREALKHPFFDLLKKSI

[21] = Induction of apoptosis in human Osimertinib-resistant NCI-H1975 cell assessed as late apoptotic cells at 125 nM measured after 16 hrs by Annexin V-FITC and PI staining based analysis (Rvb =2.84%); assay type: functional
[22] = Toxicity in ICR mouse assessed as effect on body weight loss at 1000 mg/kg, po measured for 8 to 9 days; assay type: organism-based; settings: in vivo, time 8-9 day
[23] = biological target: CDK6/cyclin D1 (Homo sapiens) (UniProt P24385+Q00534); test: Inhibition of CDK6/cyclin D1 (unknown origin) at 200 nM preincubated for 10 mins followed by substrate addition and measured after 60 mins in presence of ATP by ADP-Glo reagent based assay relative to control; assay type: protein-complex assay; settings: time 70.0 min
[24] = Induction of apoptosis in human Osimertinib-resistant NCI-H1975 cell assessed as necrotic cells at 125 nM measured after 16 hrs by Annexin V-FITC and PI staining based analysis (reference value: 0.50%); assay type: functional
[25] = biological target: Dual specificity tyrosine-phosphorylation-regulated kinase 1A (Homo sapiens) (UniProt Q13627); test: Inhibition of DYRK1A (unknown origin) at 100 nM preincubated for 10 mins followed by substrate addition and measured after 60 mins in presence of ATP by ADP-Glo reagent based assay relative to control; settings: time 70.0 min
CDK2/Cyclin A2 = CDK2/Cyclin A2 (Homo sapiens, UniProt P24941); test: Inhibition of CDK2/Cyclin A2 (unknown origin) preincubated for 10 mins followed by substrate addition and measured after 60 mins in presence of ATP by ADP-Glo reagent based assay; assay type: protein-complex assay
NCI-H1975 [26] = test: Antiproliferative activity against human NCI-H1975 cells incubated for 72 hrs by MTT assay; assay type: functional, cell-based; settings: NCI-H1975, 72 h
[27] = Downregulation of Mcl-1 in human NCI-H1975 cells at 500 nM relative to control; assay type: functional

O=C(NCCN1CCOCC1)c1ccc2cc1OCCCCCCOc1cc(ccc1F)-c1nc(ncc1F)N2
IC50 (cells): 251 nM
inhibition [1]: 11.6%
Activity [2]: Non-Toxic
Activity [3]: Non-Toxic
IC50 [4]: 120 nM
Activity [5]: Non-Toxic
inhibition [6]: 93.9%
inhibition [7]: 15.7%
Activity [8]: 18.2%
half-life at 10 µM [9]: 10.7 min
inhibition [10]: 16.3%
Activity (NCI-H1975 [11]): Dose-Dependent Effect
Activity [12]: 2.92%
inhibition [13]: 12.8%
inhibition [14]: 50.1%
inhibition [15]: 5.7%
Activity [16]: 18.9%
Activity (NCI-H1975 [17]): Dose-Dependent Effect
Activity [18]: 14.4%
Activity (NCI-H1975 [19]): Dose-Dependent Effect
IC50 (HCC827): 315 nM
inhibition [20]: 96.5%
Activity [21]: 3.15%
Activity [22]: Non-Toxic
inhibition [23]: 29.3%
Activity [24]: 3.25%
inhibition [25]: 14.3%
IC50 (CDK2/Cyclin A2): 209 nM
IC50 (NCI-H1975 [26]): 174 nM
Activity [27]: 75.6%
